Drawing on patent US20110201603A1, “Novel Acylaminobenzamide Derivatives” (Bayer CropScience AG, priority 2008, published 2011), this text covers insecticidal activity for 38 compounds.

Assay [1] deals with cucurbit leaf beetle (Aulacophora femoralis). The assay can be described thus: Test against cucurbit leaf beetle (Aulacophora femoralis), leaf dip. Particulars: active compound concentration of 100 ppm; second-instar larvae on cucumber leaves; after 7 days. Format: in vivo. How it is done: (§1) Unless not mentioned otherwise, the test solutions were prepared as follows:
(§2) Containing as solvent: Dimethylformamide, 3 parts by weight; and as emulsifier: Polyoxyethylene alkyl phenyl ether, 1 part by weight
(§3) To prepare the test solution, 1 part by weight of an active compound is mixed with the above-mentioned amount of solvent containing the above-mentioned amount of emulsifier, and the mixture is diluted with water to the desired concentration.
Cucumber leaves were immersed in the test solution at the appropriate concentration, and the leaves were dried in air. The leaves were then placed in a plastic cup containing sterilized black soil, and five second-instar larvae of cucurbit leaf beetle were released therein. The plastic cup was placed in a temperature-controlled chamber at 25° C. After 7 days, the number of dead larvae was counted, and thus the insecticidal activity was calculated. An insecticidal activity of 100% means that all beetles were killed, whereas an insecticidal activity of 0% means that no beetle was killed.

The subject of assay [2] is tobacco cutworm (Spodoptera litura) larvae. The assay can be described thus: Test against tobacco cutworm (Spodoptera litura) larvae, leaf dip. Particulars: active compound concentration of 100 ppm; third-instar larvae on sweet potato leaves; after 7 days. Format: in vivo. How it is done:
as §1, §2, §3
The leaves of sweet potato were immersed in the test solution at the appropriate concentration, and the leaves were dried in air. The leaves were then placed in a petri dish having a diameter of 9 cm, and ten third-instar larvae of tobacco cutworm were released therein. The petri dish was placed in a temperature-controlled chamber at 25° C. After 2 days and 4 days sweet potato leaves were additionally added. After 7 days, the number of dead larvae was counted to calculate the insecticidal activity. An insecticidal activity of 100% means that all larvae were killed, whereas an insecticidal activity of 0% means that no larva was killed. In the current test, the results of two petri dishes for each partition were averaged.

As to `CCc1cc(C(n2cc(Br)cn2)(C(F)(F)F)C(F)(F)F)cc(C)c1NC(=O)c1cccc(NC(=O)c2cccnc2Cl)c1` [2-87], the insecticidal activity in assay [1] and in assay [2] was 100% in each case.
Turning to `CCc1cc(C(Oc2ccc(Cl)cn2)(C(F)(F)F)C(F)(F)F)cc(C)c1NC(=O)c1cccc(NC(=O)c2cccnc2Cl)c1` [1-173], the insecticidal activity in assay [1] and in assay [2] was 100% throughout.
As to `CCc1cc(C(ON=Cc2ccc(Cl)cc2)(C(F)(F)F)C(F)(F)F)cc(C)c1NC(=O)c1cccc(NC(=O)c2cccnc2Cl)c1` [1-138], the insecticidal activity in assay [1] and in assay [2] was 100% each time.
Take `CCc1cc(C(Oc2ccnc(C(F)(F)C(F)(F)F)c2)(C(F)(F)F)C(F)(F)F)cc(C)c1NC(=O)c1cccc(NC(=O)c2cccnc2Cl)c1` [1-142]: the insecticidal activity in assay [1] and in assay [2] was 100% in each case.
Turning to `Cc1cc(C(n2cc(Cl)cn2)(C(F)(F)F)C(F)(F)F)cc(Br)c1NC(=O)c1cccc(NC(=O)c2cccnc2Cl)c1` [2-59], the insecticidal activity in assay [1] and in assay [2] was 100% in each case.
`Cc1cc(C(Oc2ccc(Cl)nc2)(C(F)(F)F)C(F)(F)F)cc(C)c1NC(=O)c1cccc(NC(=O)c2cccnc2Cl)c1` [1-182]: the insecticidal activity in assay [1] and in assay [2] was 100% in each case.
Take `Cc1cc(C(n2c(Br)nc(Br)c2Br)(C(F)(F)F)C(F)(F)F)cc(C)c1NC(=O)c1cccc(NC(=O)c2cccnc2Cl)c1` [2-144]: the insecticidal activity in assay [1] and in assay [2] was 100% each time.
`CCc1cc(C(Oc2ccc(I)cc2)(C(F)(F)F)C(F)(F)F)cc(C)c1NC(=O)c1cccc(NC(=O)c2cccnc2Cl)c1` [1-152]: the insecticidal activity in assay [1] and in assay [2] was 100% throughout.
In the case of `O=C(Nc1c(Br)cc(C(n2cc(Cl)cn2)(C(F)(F)F)C(F)(F)F)cc1Br)c1cccc(NC(=O)c2ccccc2F)c1` [2-33], the insecticidal activity in assay [1] and in assay [2] was 100% in each case.
For `Cc1cc(C(n2cnc(C(F)(F)F)n2)(C(F)(F)F)C(F)(F)F)cc(C)c1NC(=O)c1cccc(NC(=O)c2cccnc2Cl)c1` [2-153], the insecticidal activity in assay [1] and in assay [2] was 100% throughout.
Regarding `Cc1cc(C(n2cc(Cl)cn2)(C(F)(F)F)C(F)(F)F)cc(Br)c1NC(=O)c1cccc(NC(=O)c2ccccc2F)c1` [2-31], the insecticidal activity in assay [1] and in assay [2] was 100% throughout.
Turning to `CC#CCOC(c1cc(I)c(NC(=O)c2cccc(NC(=O)c3cccnc3Cl)c2)c(I)c1)(C(F)(F)F)C(F)(F)F` [1-85], the insecticidal activity in assay [1] and in assay [2] was 100% throughout.
As to `CCc1cc(C(Oc2ccc(Br)cc2)(C(F)(F)F)C(F)(F)F)cc(C)c1NC(=O)c1cccc(NC(=O)c2cccnc2Cl)c1` [1-129], the insecticidal activity in assay [1] and in assay [2] was 100% each time.
Turning to `CCc1cc(C(Oc2cccc(Cl)c2)(C(F)(F)F)C(F)(F)F)cc(C)c1NC(=O)c1cccc(NC(=O)c2cccnc2Cl)c1` [1-108], the insecticidal activity in assay [1] and in assay [2] was 100% each time.
As for `Cc1cc(C(n2cc(I)c(I)n2)(C(F)(F)F)C(F)(F)F)cc(C)c1NC(=O)c1cccc(NC(=O)c2cccnc2Cl)c1` [2-116], the insecticidal activity in assay [1] and in assay [2] was 100% each time.
As to `CCc1cc(C(n2cc(Cl)cn2)(C(F)(F)F)C(F)(F)F)cc(C)c1NC(=O)c1cccc(NC(=O)c2cccnc2F)c1` [2-44], the insecticidal activity in assay [1] and in assay [2] was 100% throughout.
Regarding `CCc1cc(C(Oc2ccc(Cl)c(Cl)c2)(C(F)(F)F)C(F)(F)F)cc(C)c1NC(=O)c1cccc(NC(=O)c2cccnc2Cl)c1` [1-151], the insecticidal activity in assay [1] and in assay [2] was 100% in each case.
For the compound `Cc1cc(C(n2cccc2Br)(C(F)(F)F)C(F)(F)F)cc(C)c1NC(=O)c1cccc(NC(=O)c2cccnc2Cl)c1` [2-2], the insecticidal activity in assay [1] and in assay [2] was 100% throughout.
With `Cc1cc(C(Oc2ccc(Br)cc2)(C(F)(F)F)C(F)(F)F)cc(C)c1NC(=O)c1cccc(NC(=O)c2cccnc2Cl)c1` [1-166], the insecticidal activity in assay [1] and in assay [2] was 100% in each case.
As to `Cc1cc(C(n2nccn2)(C(F)(F)F)C(F)(F)F)cc(C)c1NC(=O)c1cccc(NC(=O)c2cccnc2Cl)c1` [2-147], the insecticidal activity in assay [1] and in assay [2] was 100% in each case.
For the compound `O=C(Nc1c(Cl)cc(C(n2cc(Cl)cn2)(C(F)(F)F)C(F)(F)F)cc1Cl)c1cccc(NC(=O)c2cccnc2Cl)c1` [2-61], the insecticidal activity in assay [1] and in assay [2] was 100% throughout.
With `CCc1cc(C(Oc2ccc(F)cc2)(C(F)(F)F)C(F)(F)F)cc(C)c1NC(=O)c1cccc(NC(=O)c2cccnc2Cl)c1` [1-128], the insecticidal activity in assay [1] and in assay [2] was 100% in each case.
Regarding `CCc1cc(C(OCC(F)(F)F)(C(F)(F)F)C(F)(F)F)cc(C)c1NC(=O)c1cccc(NC(=O)c2cccnc2Cl)c1` [1-146], the insecticidal activity in assay [1] and in assay [2] was 100% each time.
Regarding `CC#CCOC(c1cc(I)c(NC(=O)c2cccc(NC(=O)c3ccc(F)cc3)c2)c(I)c1)(C(F)(F)F)C(F)(F)F` [1-84], the insecticidal activity in assay [1] and in assay [2] was 100% each time.
As for `CC#CCOC(c1cc(I)c(NC(=O)c2cccc(NC(=O)c3ccccc3)c2)c(I)c1)(C(F)(F)F)C(F)(F)F` [1-83], the insecticidal activity in assay [1] and in assay [2] was 100% throughout.
With `Cc1cc(C(n2cnc(Cl)c2Cl)(C(F)(F)F)C(F)(F)F)cc(C)c1NC(=O)c1cccc(NC(=O)c2cccnc2Cl)c1` [2-143], the insecticidal activity in assay [1] and in assay [2] was 100% each time.
Regarding `CCc1cc(C(Oc2ccc(OC(F)(F)F)cc2)(C(F)(F)F)C(F)(F)F)cc(C)c1NC(=O)c1cccc(NC(=O)c2cccnc2Cl)c1` [1-131], the insecticidal activity in assay [1] and in assay [2] was 100% each time.
Consider `CCc1cc(C(Oc2ccc(C(F)(F)F)cc2)(C(F)(F)F)C(F)(F)F)cc(C)c1NC(=O)c1cccc(NC(=O)c2cccnc2Cl)c1` [1-130], for which the insecticidal activity in assay [1] and in assay [2] was 100% in each case.
Take `CCc1cc(C(Oc2ccc(Cl)cc2)(C(F)(F)F)C(F)(F)F)cc(CC)c1NC(=O)c1cccc(NC(=O)c2cccnc2Cl)c1` [1-176]: the insecticidal activity in assay [1] and in assay [2] was 100% in each case.
With `O=C(Nc1c(I)cc(C(n2cc(Cl)cn2)(C(F)(F)F)C(F)(F)F)cc1I)c1cccc(NC(=O)c2ccccc2F)c1` [2-34], the insecticidal activity in assay [1] and in assay [2] was 100% each time.
With `Cc1cc(C(n2nc(Br)c(Br)c2Br)(C(F)(F)F)C(F)(F)F)cc(C)c1NC(=O)c1cccc(NC(=O)c2cccnc2Cl)c1` [2-133], the insecticidal activity in assay [1] and in assay [2] was 100% throughout.
As to `O=C(Nc1c(Cl)cc(C(n2cc(Cl)cn2)(C(F)(F)F)C(F)(F)F)cc1Cl)c1cccc(NC(=O)c2ccccc2F)c1` [2-32], the insecticidal activity in assay [1] and in assay [2] was 100% in each case.
On to `O=C(Nc1c(I)cc(C(n2cc(Cl)cn2)(C(F)(F)F)C(F)(F)F)cc1I)c1cccc(NC(=O)c2cccnc2Cl)c1` [2-63], for which the insecticidal activity in assay [1] and in assay [2] was 100% throughout.
Take `CCc1cc(C(Oc2ccc(C#N)cc2)(C(F)(F)F)C(F)(F)F)cc(C)c1NC(=O)c1cccc(NC(=O)c2cccnc2Cl)c1` [1-168]: the insecticidal activity in assay [1] and in assay [2] was 100% in each case.
As to `CCc1cc(C(n2nc(Br)c(Br)c2Br)(C(F)(F)F)C(F)(F)F)cc(C)c1NC(=O)c1cccc(NC(=O)c2cccnc2F)c1` [2-128], the insecticidal activity in assay [1] and in assay [2] was 100% in each case.
`CCc1cc(C(n2cnc(Cl)n2)(C(F)(F)F)C(F)(F)F)cc(C)c1NC(=O)c1cccc(NC(=O)c2cccnc2Cl)c1` [2-183]: the insecticidal activity in assay [1] and in assay [2] was 100% in each case.
As for `CCc1cc(C(n2nc(Br)c(Br)c2Br)(C(F)(F)F)C(F)(F)F)cc(C)c1NC(=O)c1cccc(NC(=O)c2cccnc2Cl)c1` [2-134], the insecticidal activity in assay [1] and in assay [2] was 100% in each case.
`CCc1cc(C(Oc2cccnc2)(C(F)(F)F)C(F)(F)F)cc(C)c1NC(=O)c1cccc(NC(=O)c2cccnc2Cl)c1` [1-171]: the insecticidal activity in assay [1] and in assay [2] was 100% throughout.
